ChEMBL document CHEMBL3232917, “Schiff's base derivatives bearing nitroimidazole and quinoline nuclei: new class of anticancer agents and potential EGFR tyrosine kinase inhibitors” (Bioorg Med Chem Lett, 2014)

Key:
A549 = assay: cells; settings: Homo sapiens, A549, 48 h
HepG2 = assay: cells; settings: Homo sapiens, HepG2, 48 h
[1] = biological target: Epidermal growth factor receptor (Homo sapiens, UniProt P00533); assay: Inhibition of autophosphorylation of EGFR cytoplasmic domain (amino acids 645 to 1186) (unknown origin) expressed in Sf9 cells after 1 hr by time-resolved fluorometry
[2] = biological target: Receptor tyrosine-protein kinase erbB-2 (Homo sapiens) (UniProt P04626); assay: Inhibition of autophosphorylation of human HER2 cytoplasmic domain (amino acids 676 to 1245) (unknown origin) expressed in Sf9 cells after 1 hr by time-resolved fluorometry
Chain of Receptor tyrosine-protein kinase erbB-2 (Homo sapiens) (P04626 whole entry, looked up, the tested form may be a part): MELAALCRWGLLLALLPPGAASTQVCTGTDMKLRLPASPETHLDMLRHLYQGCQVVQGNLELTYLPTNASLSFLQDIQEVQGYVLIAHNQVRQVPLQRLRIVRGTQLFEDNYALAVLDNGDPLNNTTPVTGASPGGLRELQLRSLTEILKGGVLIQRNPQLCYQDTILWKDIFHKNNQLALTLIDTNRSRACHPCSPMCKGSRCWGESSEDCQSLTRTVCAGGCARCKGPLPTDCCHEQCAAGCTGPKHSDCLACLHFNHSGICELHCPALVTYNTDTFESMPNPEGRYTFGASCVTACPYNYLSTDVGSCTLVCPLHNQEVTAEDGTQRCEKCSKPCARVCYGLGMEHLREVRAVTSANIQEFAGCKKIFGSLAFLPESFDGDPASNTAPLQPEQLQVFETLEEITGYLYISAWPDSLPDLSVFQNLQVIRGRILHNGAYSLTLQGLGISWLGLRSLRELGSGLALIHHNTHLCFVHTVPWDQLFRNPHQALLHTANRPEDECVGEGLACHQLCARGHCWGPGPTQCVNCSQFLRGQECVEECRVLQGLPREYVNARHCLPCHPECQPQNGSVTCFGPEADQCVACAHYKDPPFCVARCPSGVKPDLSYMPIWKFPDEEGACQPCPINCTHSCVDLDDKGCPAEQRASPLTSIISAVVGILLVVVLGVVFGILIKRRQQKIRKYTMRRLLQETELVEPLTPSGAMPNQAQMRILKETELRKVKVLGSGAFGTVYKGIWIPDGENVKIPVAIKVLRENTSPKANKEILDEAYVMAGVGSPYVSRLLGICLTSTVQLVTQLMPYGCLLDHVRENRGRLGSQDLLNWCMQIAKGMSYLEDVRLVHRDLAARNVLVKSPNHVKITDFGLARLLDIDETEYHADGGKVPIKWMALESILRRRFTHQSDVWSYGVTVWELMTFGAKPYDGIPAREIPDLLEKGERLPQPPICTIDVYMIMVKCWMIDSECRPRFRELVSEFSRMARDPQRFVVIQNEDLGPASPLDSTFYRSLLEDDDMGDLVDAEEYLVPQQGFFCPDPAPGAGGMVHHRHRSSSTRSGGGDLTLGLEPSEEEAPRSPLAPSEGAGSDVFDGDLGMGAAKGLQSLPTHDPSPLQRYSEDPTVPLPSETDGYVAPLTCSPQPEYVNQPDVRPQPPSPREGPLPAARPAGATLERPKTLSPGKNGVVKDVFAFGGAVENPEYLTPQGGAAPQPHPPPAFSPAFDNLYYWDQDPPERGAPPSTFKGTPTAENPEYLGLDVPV

Chain of Epidermal growth factor receptor (P00533 whole entry, the tested form may be a part): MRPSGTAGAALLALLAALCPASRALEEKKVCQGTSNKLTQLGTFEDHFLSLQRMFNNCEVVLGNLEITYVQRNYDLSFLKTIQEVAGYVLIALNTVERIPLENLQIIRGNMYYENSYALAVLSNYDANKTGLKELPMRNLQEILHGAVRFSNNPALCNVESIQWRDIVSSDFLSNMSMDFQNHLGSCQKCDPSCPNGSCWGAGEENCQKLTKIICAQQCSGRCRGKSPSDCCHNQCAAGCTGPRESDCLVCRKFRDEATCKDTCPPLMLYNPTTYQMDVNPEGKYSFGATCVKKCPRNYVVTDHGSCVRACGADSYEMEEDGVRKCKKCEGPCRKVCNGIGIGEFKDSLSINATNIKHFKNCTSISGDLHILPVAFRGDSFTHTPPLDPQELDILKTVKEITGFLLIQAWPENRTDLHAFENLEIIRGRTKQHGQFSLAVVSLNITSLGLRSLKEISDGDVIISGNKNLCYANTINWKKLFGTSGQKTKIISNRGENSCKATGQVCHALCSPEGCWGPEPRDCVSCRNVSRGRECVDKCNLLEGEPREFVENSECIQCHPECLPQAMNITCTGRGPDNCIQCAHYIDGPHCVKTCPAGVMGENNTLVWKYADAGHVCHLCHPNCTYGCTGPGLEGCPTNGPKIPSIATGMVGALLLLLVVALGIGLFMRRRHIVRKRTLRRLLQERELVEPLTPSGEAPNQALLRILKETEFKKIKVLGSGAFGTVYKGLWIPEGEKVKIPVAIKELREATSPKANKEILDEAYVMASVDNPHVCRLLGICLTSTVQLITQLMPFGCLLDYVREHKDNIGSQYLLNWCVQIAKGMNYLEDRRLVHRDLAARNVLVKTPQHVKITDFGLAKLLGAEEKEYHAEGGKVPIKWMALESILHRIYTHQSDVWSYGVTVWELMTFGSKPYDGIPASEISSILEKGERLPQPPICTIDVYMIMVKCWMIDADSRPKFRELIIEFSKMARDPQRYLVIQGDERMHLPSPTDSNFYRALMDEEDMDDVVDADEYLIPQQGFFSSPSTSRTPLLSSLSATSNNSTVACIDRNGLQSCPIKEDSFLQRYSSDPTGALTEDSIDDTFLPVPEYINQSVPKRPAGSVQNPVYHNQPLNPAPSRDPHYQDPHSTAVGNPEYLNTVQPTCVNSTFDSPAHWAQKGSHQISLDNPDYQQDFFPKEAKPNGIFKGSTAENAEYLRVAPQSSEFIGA

SMILES	IC50 (A549)	IC50 (HepG2)	IC50 [1]	IC50 [2]
Cc1ncc([N+](=O)[O-])n1CC(=O)N/N=C/c1cc2ccccc2nc1Oc1ccccc1	9.45 µM	13.3 µM		
Cc1ccc(Oc2nc3ccccc3cc2/C=N/NC(=O)Cn2c([N+](=O)[O-])cnc2C)cc1	21.5 µM	27.1 µM	23.1 µM	7.67 µM
COc1ccc(Oc2nc3ccccc3cc2/C=N/NC(=O)Cn2c([N+](=O)[O-])cnc2C)cc1	0.92 µM	4.13 µM	0.27 µM	12 µM
Cc1ncc([N+](=O)[O-])n1CC(=O)N/N=C/c1cc2ccccc2nc1Oc1ccc(F)cc1	3.12 µM	0.18 µM	21 µM	0.37 µM
Cc1ncc([N+](=O)[O-])n1CC(=O)N/N=C/c1cc2ccccc2nc1Oc1ccc(Cl)cc1	9.03 µM	0.22 µM	5.12 µM	4.1 µM
Cc1ccc2nc(Oc3ccccc3)c(/C=N/NC(=O)Cn3c([N+](=O)[O-])cnc3C)cc2c1	7.18 µM	15.1 µM	3.17 µM	1.58 µM
Cc1ccc(Oc2nc3ccc(C)cc3cc2/C=N/NC(=O)Cn2c([N+](=O)[O-])cnc2C)cc1	1.19 µM	21.9 µM	0.18 µM	17 µM
COc1ccc(Oc2nc3ccc(C)cc3cc2/C=N/NC(=O)Cn2c([N+](=O)[O-])cnc2C)cc1	0.16 µM	3.15 µM	0.12 µM	2.18 µM
Cc1ccc2nc(Oc3ccc(F)cc3)c(/C=N/NC(=O)Cn3c([N+](=O)[O-])cnc3C)cc2c1	0.19 µM	1.56 µM	0.42 µM	0.43 µM
Cc1ccc2nc(Oc3ccc(Cl)cc3)c(/C=N/NC(=O)Cn3c([N+](=O)[O-])cnc3C)cc2c1	1.23 µM	3.18 µM	8.66 µM	19 µM
